From ChEMBL document CHEMBL5608210 (Eur J Med Chem, 2024)
Active and inactive are the calls of the source. The calls are words filed in the database; no cut-off is given here.

Columns and labels:
[1] = molecular target: T1, Fatty acid-binding protein, liver (Homo sapiens) (UniProt P07148); assay: Inhibition of human FABP1 at 9 uM incubated for 3 mins by fluorescence based analysis relative to control
T1 sequence (whole entry): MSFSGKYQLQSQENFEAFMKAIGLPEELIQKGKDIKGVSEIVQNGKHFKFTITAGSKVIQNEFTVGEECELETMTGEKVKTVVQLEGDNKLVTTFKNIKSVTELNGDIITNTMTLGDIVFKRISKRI

[2] = test system: Mus musculus; assay: Anti-NAFLD activity in high-fat diet induced obese male C57BL/6 mouse model assessed as reduction in AUC (0 to 90 mins) at 20 mg/kg, po administered everyday for 4 weeks by oral glucose tolerance test; type: functional, organism-based
[3] = molecular target: T2, Fatty acid-binding protein, liver (Homo sapiens, UniProt P07148); assay: Inhibition of human FABP1 incubated for 3 mins by fluorescence based analysis
T2 sequence (P07148 whole entry): T1 sequence (whole entry)

[4] = molecular target: Fatty acid-binding protein, adipocyte (Homo sapiens, UniProt P15090); assay: Inhibition of FABP4 (unknown origin) incubated for 3 mins by fluorescence based analysis
Fatty acid-binding protein, adipocyte, sequence (P15090 whole entry): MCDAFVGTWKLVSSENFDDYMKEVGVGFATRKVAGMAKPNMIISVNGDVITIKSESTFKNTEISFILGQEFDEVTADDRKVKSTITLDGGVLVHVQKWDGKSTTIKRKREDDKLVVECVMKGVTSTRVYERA

[5] = test system: Mus musculus; assay: Anti-NAFLD activity in high-fat diet induced obese male C57BL/6 mouse model assessed as improvement in oral glucose tolerance at 20 mg/kg, po administered everyday for 4 weeks by oral glucose tolerance test; type: functional, organism-based
[6] = Toxicity in high-fat diet induced obese male C57BL/6 mouse model assessed as effect on ALT level in serum at 20 mg/kg/day, po measured after 4 weeks by automatic biochemical analyzer; type: organism-based; conditions: in vivo, 672 h
[7] = Toxicity in high-fat diet induced obese male C57BL/6 mouse model assessed as effect on AST level in serum at 20 mg/kg/day, po measured after 4 weeks by automatic biochemical analyzer; type: organism-based; conditions: in vivo, 672 h
[8] = Toxicity in high-fat diet induced obese male C57BL/6 mouse model assessed as effect on ALP level in serum at 20 mg/kg/day, po measured after 4 weeks by automatic biochemical analyzer; type: organism-based; conditions: in vivo, 672 h
[9] = Toxicity in high-fat diet induced obese male C57BL/6 mouse model assessed as effect on UA level in serum at 20 mg/kg/day, po measured after 4 weeks by automatic biochemical analyzer; type: organism-based; conditions: in vivo, 672 h
[10] = Toxicity in high-fat diet induced obese male C57BL/6 mouse model assessed as effect on TBA level in serum at 20 mg/kg/day, po measured after 4 weeks by automatic biochemical analyzer; type: organism-based; conditions: in vivo, 672 h
[11] = Toxicity in high-fat diet induced obese male C57BL/6 mouse model assessed as effect on TBIL level in serum at 20 mg/kg/day, po measured after 4 weeks by automatic biochemical analyzer; type: organism-based; conditions: in vivo, 672 h
[12] = test system: Mus musculus; assay: Hepatoprotective activity in high-fat diet induced obese male C57BL/6 mouse model assessed reduction in hepatocyte steatosis at 20 mg/kg, po administered everyday for 4 weeks by H and E staining based analysis; type: functional, organism-based
[13] = test system: Mus musculus; assay: Hepatoprotective activity in high-fat diet induced obese male C57BL/6 mouse model assessed reduction in inflammatory cell infiltration at 20 mg/kg, po administered everyday for 4 weeks by H and E staining based analysis; type: functional, organism-based
[14] = test system: Mus musculus; assay: Hepatoprotective activity in high-fat diet induced obese male C57BL/6 mouse model assessed as reduction in LDL-C level in serum at 20 mg/kg/day, po measured after 4 weeks by automatic biochemical analyzer; type: functional, organism-based
[15] = test system: Mus musculus; assay: Hepatoprotective activity in high-fat diet induced obese male C57BL/6 mouse model assessed as reduction in TC level in serum at 20 mg/kg/day, po measured after 4 weeks by automatic biochemical analyzer; type: functional, organism-based
[16] = test system: Mus musculus; assay: Hepatoprotective activity in high-fat diet induced obese male C57BL/6 mouse model assessed as reduction in TG level in serum at 20 mg/kg/day, po measured after 4 weeks by automatic biochemical analyzer; type: functional, organism-based
[17] = test system: Mus musculus; assay: Hepatoprotective activity in high-fat diet induced obese male C57BL/6 mouse model assessed as decrease in IL-6 level in liver at 20 mg/kg/day, po measured after 4 weeks by ELISA method; type: functional, organism-based
[18] = test system: Mus musculus; assay: Hepatoprotective activity in high-fat diet induced obese male C57BL/6 mouse model assessed as decrease in IL-1 beta level in liver at 20 mg/kg/day, po measured after 4 weeks by ELISA method; type: functional, organism-based
[19] = test system: Mus musculus; assay: Hepatoprotective activity in high-fat diet induced obese male C57BL/6 mouse model assessed as decrease in MCP-1 level in liver at 20 mg/kg/day, po measured after 4 weeks by ELISA method; type: functional, organism-based
[20] = test system: Mus musculus; assay: Hepatoprotective activity in high-fat diet induced obese male C57BL/6 mouse model assessed as decrease in TNF-alpha level in liver at 20 mg/kg/day, po measured after 4 weeks by ELISA method; type: functional, organism-based

Structure (SMILES) | inhibition [1] [%] | further results
CSCCC(NS(=O)(=O)c1cccc2cccnc12)C(=O)O (stereo not given) | 20.9 | 
O=C(O)CCNS(=O)(=O)c1cccc2cccnc12 | 3.47 | 
O=C(O)CNC(=O)c1ccc(NS(=O)(=O)c2cccc3cccnc23)cc1 | 16.1 | 
O=C(O)C1(c2cccc(-c3ccc(OCc4c(-c5c(Cl)cccc5Cl)noc4C4CC4)cc3)c2)CC1 |  | IC50 [4]: 6.2 µM
O=C(O)C[C@H](NC(=O)c1ccc(NS(=O)(=O)c2cccc3cccnc23)cc1)C(=O)O | 13.1 | 
O=C(O)CCCCCCCOc1cccc(NS(=O)(=O)c2cccc3cccnc23)c1 | 69.3 | IC50 [3]: 3.02 µM
O=C(O)CCC(NC(=O)N1CCN(S(=O)(=O)c2cccc3cccnc23)CC1)C(=O)O (stereo not given) | 31.6 | 
O=C(O)CCC(NC(=O)C1CCCN(S(=O)(=O)c2cccc3cccnc23)C1)C(=O)O (stereo not given) | 10.3 | 
CC1CN(S(=O)(=O)c2cccc3cccnc23)CCN1C(=O)CC(=O)O (stereo not given) | 20.3 | 
O=C(O)CCNC(=O)c1ccc(NS(=O)(=O)c2cccc3cccnc23)cc1 | 15.3 | 
O=C(O)CC(=O)N1CCN(S(=O)(=O)c2cccc3cccnc23)CC1 | 26.2 | 
O=C(O)CNC(=O)CNC(=O)c1ccc(NS(=O)(=O)c2cccc3cccnc23)cc1 | 11.9 | 
O=C(C1CCCN(S(=O)(=O)c2cccc3cccnc23)C1)N1CCNCC1 (stereo not given) | 11.5 | 
O=C(O)CNC(=O)CNS(=O)(=O)c1cccc2cccnc12 | 10.1 | 
O=C(O)CNS(=O)(=O)c1cccc2cccnc12 | 4.26 | 
CCc1c(-c2ccccc2)c(-c2ccccc2)nn1-c1ccccc1-c1cccc(OCC(=O)O)c1 |  | IC50 [3]: 2.71 µM
O=C(O)C1CCCN(S(=O)(=O)c2cccc3cccnc23)C1 (stereo not given) | 13.7 | 
O=C(O)CC(NC(=O)C1CCCN(S(=O)(=O)c2cccc3cccnc23)C1)C(=O)O (stereo not given) | 12.1 | 
O=C(O)C1(C(=O)N2CCN(S(=O)(=O)c3cccc4cccnc34)CC2)CC1 | 30.5 | 
O=C(O)CC[C@H](NC(=O)c1ccc(NS(=O)(=O)c2cccc3cccnc23)cc1)C(=O)O | 12.2 | 

Further lines, with some results ahead:

inhibition [1] [%] | Structure (SMILES) | further results
1.28 | O=C(O)c1ccc(NS(=O)(=O)c2cccc3cccnc23)cc1 | 
78.1 | O=S(=O)(c1ccccc1-c1cccc(O)c1)N1CCN(S(=O)(=O)c2cccc3cccnc23)CC1 | Activity [2]: Active; IC50 [3]: 1.18 µM; IC50 [4]: > 80 µM; Activity [5]: Active; Activity [6]: Non-Toxic; Activity [7]: Non-Toxic; Activity [8]: Non-Toxic; Activity [9]: Non-Toxic; Activity [10]: Non-Toxic; Activity [11]: Non-Toxic; Activity [12]: Active; Activity [13]: Active; Activity [14]: Active; Activity [15]: Active; Activity [16]: Active; Activity [17]: Active; Activity [18]: Active; Activity [19]: Active; Activity [20]: Active
13.4 | O=C(O)CC(=O)N1CCN(S(=O)(=O)c2ccc(-c3ccccc3)cc2)CC1 | 
68.3 | O=C(O)c1ccc(-c2ccccc2S(=O)(=O)N2CCN(S(=O)(=O)c3cccc4cccnc34)CC2)cc1 | IC50 [3]: 2.11 µM
72.5 | O=C(O)CCCCCCCOc1ccc(NS(=O)(=O)c2cccc3cccnc23)cc1 | IC50 [3]: 2.44 µM
8.28 | O=C(O)c1cccc(NS(=O)(=O)c2cccc3cccnc23)c1 | 
73.5 | O=C(O)CCCCCCCOc1cccc(NS(=O)(=O)c2ccc(-c3ccccc3)cc2)c1 | IC50 [3]: 3.24 µM
21.1 | O=C(O)C1(C(=O)N2CCN(S(=O)(=O)c3ccc(-c4ccccc4)cc3)CC2)CC1 | 
23.8 | O=C(O)CC(=O)N1CCN(C(=O)c2ccc(NS(=O)(=O)c3cccc4cccnc34)cc2)CC1 | 
61.2 | N#Cc1ccc(-c2ccccc2S(=O)(=O)N2CCN(S(=O)(=O)c3cccc4cccnc34)CC2)cc1 | IC50 [3]: 2.66 µM
29.9 | O=C(c1ccc(NS(=O)(=O)c2cccc3cccnc23)cc1)N1CCN(C(=O)C2(C(=O)O)CC2)CC1 | 
52.7 | O=S(=O)(c1ccccc1-c1ccc(F)cc1)N1CCN(S(=O)(=O)c2cccc3cccnc23)CC1 | IC50 [3]: 5.66 µM
0.18 | O=S(=O)(c1ccc(-c2ccccc2)cc1)N1CCNCC1 | 
63.8 | Cc1cc(F)ccc1-c1ccccc1S(=O)(=O)N1CCN(S(=O)(=O)c2cccc3cccnc23)CC1 | IC50 [3]: 6.11 µM
